Assay results as given in PubChem BioAssay AID1963962 (Molecular Pharmacology Branch, DTP, NCI, 2024).

System: 967376-340-R-J2-PDC multicell spheroid viability
Assay: Anticancer human tumor 967376-340-R-J2-PDC patient-derived colon adenocarcinoma cell line growth inhibition [PI3K]
Settings: for IC50: curve of first compound; for viability, T/C: stronger effect = lower value; active = viability on the fitted dose curve at most 10% of control; inactive = the rest
Method in brief: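 High-throughput combination screen: PI3K inhibitors crossed with targeted small molecules on complex spheroids of tumor cells, HUVEC and MSCs at 37 degrees C, 5% CO2. Top concentration was at or near clinical Cmax (otherwise 10 microM), with half-log decrements.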

[1] = second compound 0.0316 µM, first compound 0.0316 µM
[2] = second compound 0.0316 µM, first compound 0.1 µM
[3] = second compound 0.0316 µM, first compound 0.316 µM
[4] = second compound 0.0316 µM, first compound 1 µM
[5] = second compound 0.0316 µM, first compound 3.16 µM
[6] = second compound 0.0316 µM, first compound 10 µM
[7] = second compound 0.1 µM, first compound 0.0316 µM
[8] = second compound 0.1 µM, first compound 0.1 µM
[9] = second compound 0.1 µM, first compound 0.316 µM
[10] = second compound 0.1 µM, first compound 1 µM
[11] = second compound 0.1 µM, first compound 3.16 µM
[12] = second compound 0.1 µM, first compound 10 µM
[13] = second compound 0.316 µM, first compound 0.0316 µM
[14] = second compound 0.316 µM, first compound 0.1 µM
[15] = second compound 0.316 µM, first compound 0.316 µM
[16] = second compound 0.316 µM, first compound 1 µM
[17] = second compound 0.316 µM, first compound 3.16 µM
[18] = second compound 0.316 µM, first compound 10 µM
[19] = second compound 1 µM, first compound 0.0316 µM
[20] = second compound 1 µM, first compound 0.1 µM
[21] = second compound 1 µM, first compound 0.316 µM
[22] = second compound 1 µM, first compound 1 µM
[23] = second compound 1 µM, first compound 3.16 µM
[24] = second compound 1 µM, first compound 10 µM
[25] = second compound 3.16 µM, first compound 0.0316 µM
[26] = second compound 3.16 µM, first compound 0.1 µM
[27] = second compound 3.16 µM, first compound 0.316 µM
[28] = second compound 3.16 µM, first compound 1 µM
[29] = second compound 3.16 µM, first compound 3.16 µM
[30] = second compound 3.16 µM, first compound 10 µM
[31] = second compound 10 µM, first compound 0.0316 µM
[32] = second compound 10 µM, first compound 0.1 µM
[33] = second compound 10 µM, first compound 0.316 µM
[34] = second compound 10 µM, first compound 1 µM
[35] = second compound 10 µM, first compound 3.16 µM
[36] = second compound 10 µM, first compound 10 µM
[37] = second compound 0.0316 µM, first compound 0.00316 µM
[38] = second compound 0.0316 µM, first compound 0.01 µM
[39] = second compound 0.1 µM, first compound 0.00316 µM
[40] = second compound 0.1 µM, first compound 0.01 µM
[41] = second compound 0.316 µM, first compound 0.00316 µM
[42] = second compound 0.316 µM, first compound 0.01 µM
[43] = second compound 1 µM, first compound 0.00316 µM
[44] = second compound 1 µM, first compound 0.01 µM
[45] = second compound 3.16 µM, first compound 0.00316 µM
[46] = second compound 3.16 µM, first compound 0.01 µM
[47] = second compound 10 µM, first compound 0.00316 µM
[48] = second compound 10 µM, first compound 0.01 µM
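Also: spheroids exposed to agents for 7 days before read-out.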
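For viability, T/C in this document: luminescence used as surrogate of cell viability.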

CC(C)NCC(C(=O)N1CCN(c2ncnc3c2C(C)CC3O)CC1)c1ccc(Cl)cc1 (stereo not given) + CC(Nc1ncnc2nc[nH]c12)c1cc2cccc(Cl)c2c(=O)n1-c1ccccc1
inactive: viability, T/C [1] 100% | viability, T/C [2] 80.4% | viability, T/C [3] 101% | viability, T/C [4] 96.1% | viability, T/C [5] 88.6% | viability, T/C [6] 86.5% | viability, T/C [7] 102% | viability, T/C [8] 85% | viability, T/C [9] 85.4% | viability, T/C [10] 83.5% | viability, T/C [11] 84.8% | viability, T/C [12] 65.1% | viability, T/C [13] 111% | viability, T/C [14] 104% | viability, T/C [15] 101% | viability, T/C [16] 96.7% | viability, T/C [17] 90.7% | viability, T/C [18] 78.5% | viability, T/C [19] 84.2% | viability, T/C [20] 90.5% | viability, T/C [21] 83.9% | viability, T/C [22] 102% | viability, T/C [23] 87.4% | viability, T/C [24] 77.1% | viability, T/C [25] 94% | viability, T/C [26] 64.8% | viability, T/C [27] 77.5% | viability, T/C [28] 91.1% | viability, T/C [29] 93.1% | viability, T/C [30] 79.4% | viability, T/C [31] 94.8% | viability, T/C [32] 90.5% | viability, T/C [33] 68.4% | viability, T/C [34] 94.2% | viability, T/C [35] 76.2% | viability, T/C [36] 86.9%
> 10 µM: IC50 (second compound 0.0316 µM) | IC50 (second compound 0.1 µM) | IC50 (second compound 0.316 µM) | IC50 (second compound 1 µM) | IC50 (second compound 3.16 µM) | IC50 (second compound 10 µM)

CCN1CCN(Cc2ccc(Nc3ncc(F)c(-c4cc(F)c5nc(C)n(C(C)C)c5c4)n3)nc2)CC1 + CC(Nc1ncnc2nc[nH]c12)c1cc2cccc(Cl)c2c(=O)n1-c1ccccc1
inactive: viability, T/C [37] 93.1% | viability, T/C [38] 95.1% | viability, T/C [1] 91.3% | viability, T/C [2] 73.8% | viability, T/C [3] 88.5% | viability, T/C [4] 70.1% | viability, T/C [39] 103% | viability, T/C [40] 106% | viability, T/C [7] 74.9% | viability, T/C [8] 87.9% | viability, T/C [9] 74.4% | viability, T/C [10] 86.8% | viability, T/C [41] 113% | viability, T/C [42] 95.7% | viability, T/C [13] 100% | viability, T/C [14] 83.9% | viability, T/C [15] 79.5% | viability, T/C [16] 65.1% | viability, T/C [43] 111% | viability, T/C [44] 87% | viability, T/C [19] 86.8% | viability, T/C [20] 80% | viability, T/C [21] 78.6% | viability, T/C [22] 58.6% | viability, T/C [45] 95.7% | viability, T/C [46] 77.7% | viability, T/C [25] 94.5% | viability, T/C [26] 72.6% | viability, T/C [27] 75.9% | viability, T/C [28] 60% | viability, T/C [47] 92% | viability, T/C [48] 85.9% | viability, T/C [31] 72% | viability, T/C [32] 62% | viability, T/C [33] 67.3% | viability, T/C [34] 48.6%
> 1 µM: IC50 (second compound 0.0316 µM) | IC50 (second compound 0.1 µM) | IC50 (second compound 0.316 µM) | IC50 (second compound 1 µM) | IC50 (second compound 3.16 µM) | IC50 (second compound 10 µM)

C[C@@H](NC(=O)c1ncnc(N)c1Cl)c1ncc(C(=O)Nc2cc(C(F)(F)F)c(Cl)cn2)s1 + CC(Nc1ncnc2nc[nH]c12)c1cc2cccc(Cl)c2c(=O)n1-c1ccccc1
> 10 µM: IC50 (second compound 0.0316 µM) | IC50 (second compound 0.1 µM) | IC50 (second compound 0.316 µM) | IC50 (second compound 1 µM) | IC50 (second compound 3.16 µM) | IC50 (second compound 10 µM)
inactive: viability, T/C [1] 100% | viability, T/C [2] 129% | viability, T/C [3] 109% | viability, T/C [4] 104% | viability, T/C [5] 101% | viability, T/C [6] 98.9% | viability, T/C [7] 123% | viability, T/C [8] 112% | viability, T/C [9] 90.5% | viability, T/C [10] 102% | viability, T/C [11] 110% | viability, T/C [12] 117% | viability, T/C [13] 92.5% | viability, T/C [14] 102% | viability, T/C [15] 109% | viability, T/C [16] 107% | viability, T/C [17] 96.9% | viability, T/C [18] 110% | viability, T/C [19] 114% | viability, T/C [20] 97.8% | viability, T/C [21] 99.7% | viability, T/C [22] 90.7% | viability, T/C [23] 127% | viability, T/C [24] 106% | viability, T/C [25] 95.9% | viability, T/C [26] 92.2% | viability, T/C [27] 106% | viability, T/C [28] 92.8% | viability, T/C [29] 97.3% | viability, T/C [30] 113% | viability, T/C [31] 79.7% | viability, T/C [32] 97.2% | viability, T/C [33] 106% | viability, T/C [34] 97.1% | viability, T/C [35] 107% | viability, T/C [36] 119%

Cn1ncc(Cl)c1-c1cc(C(=O)NC(CN)Cc2cccc(F)c2)sc1Cl (stereo not given) + CC(Nc1ncnc2nc[nH]c12)c1cc2cccc(Cl)c2c(=O)n1-c1ccccc1
9.58 µM: IC50 (second compound 1 µM)
inactive: viability, T/C [1] 99% | viability, T/C [2] 95% | viability, T/C [3] 93.6% | viability, T/C [4] 91.1% | viability, T/C [5] 66.9% | viability, T/C [6] 62.5% | viability, T/C [7] 122% | viability, T/C [8] 97.3% | viability, T/C [9] 104% | viability, T/C [10] 86.7% | viability, T/C [11] 84.8% | viability, T/C [12] 71.1% | viability, T/C [13] 87.2% | viability, T/C [14] 97.7% | viability, T/C [15] 86.9% | viability, T/C [16] 81.4% | viability, T/C [17] 78.3% | viability, T/C [18] 64.6% | viability, T/C [19] 85.3% | viability, T/C [20] 104% | viability, T/C [21] 101% | viability, T/C [22] 86.4% | viability, T/C [23] 79.1% | viability, T/C [24] 48.8% | viability, T/C [25] 101% | viability, T/C [26] 93.7% | viability, T/C [27] 104% | viability, T/C [28] 73.5% | viability, T/C [29] 73.2% | viability, T/C [30] 53.6% | viability, T/C [31] 79.4% | viability, T/C [32] 88.5% | viability, T/C [33] 96.7% | viability, T/C [34] 86.3% | viability, T/C [35] 60.3% | viability, T/C [36] 44.4%
> 10 µM: IC50 (second compound 0.0316 µM) | IC50 (second compound 0.1 µM) | IC50 (second compound 0.316 µM) | IC50 (second compound 3.16 µM)
6.67 µM: IC50 (second compound 10 µM)

Cn1ncnc1[C@H]1c2n[nH]c(=O)c3cc(F)cc(c23)N[C@@H]1c1ccc(F)cc1 + CC(Nc1ncnc2nc[nH]c12)c1cc2cccc(Cl)c2c(=O)n1-c1ccccc1
> 0.1 µM: IC50 (second compound 0.0316 µM) | IC50 (second compound 0.1 µM) | IC50 (second compound 0.316 µM) | IC50 (second compound 1 µM) | IC50 (second compound 3.16 µM) | IC50 (second compound 10 µM)
inactive: viability, T/C (second compound 0.0316 µM, first compound 0.000316 µM) 111% | viability, T/C (second compound 0.0316 µM, first compound 0.001 µM) 114% | viability, T/C [37] 90% | viability, T/C [38] 107% | viability, T/C [1] 84.7% | viability, T/C [2] 86.7% | viability, T/C (second compound 0.1 µM, first compound 0.000316 µM) 103% | viability, T/C (second compound 0.1 µM, first compound 0.001 µM) 94.2% | viability, T/C [39] 102% | viability, T/C [40] 109% | viability, T/C [7] 93.4% | viability, T/C [8] 89.5% | viability, T/C (second compound 0.316 µM, first compound 0.000316 µM) 83.5% | viability, T/C (second compound 0.316 µM, first compound 0.001 µM) 96.5% | viability, T/C [41] 78.6% | viability, T/C [42] 83.4% | viability, T/C [13] 102% | viability, T/C [14] 79.2% | viability, T/C (second compound 1 µM, first compound 0.000316 µM) 122% | viability, T/C (second compound 1 µM, first compound 0.001 µM) 84.7% | viability, T/C [43] 87.2% | viability, T/C [44] 91.7% | viability, T/C [19] 108% | viability, T/C [20] 104% | viability, T/C (second compound 3.16 µM, first compound 0.000316 µM) 73.7% | viability, T/C (second compound 3.16 µM, first compound 0.001 µM) 73.8% | viability, T/C [45] 89.6% | viability, T/C [46] 71.1% | viability, T/C [25] 83.3% | viability, T/C [26] 87.8% | viability, T/C (second compound 10 µM, first compound 0.000316 µM) 89.5% | viability, T/C (second compound 10 µM, first compound 0.001 µM) 102% | viability, T/C [47] 81.5% | viability, T/C [48] 76.4% | viability, T/C [31] 78% | viability, T/C [32] 73.5%
